Several values for one entry are separate records, joined by “and”; a condition that tells them apart may be missing. Equal entries are not always repeated. Where two headings read alike, the source gives them in different places.
Assay: Topotecan PK following Compound 1 infusion
Assay type: in vivo, human
Procedure: Blood samples were obtained prior to dosing, at the end of the 30-minute infusion (EOI), and at 0.5, 1, 1.5, 2, 2.5, 4, 6, 8, and 24 hours after the end of infusion. Analysis of plasma concentration versus time data for calculation of standard pharmacokinetic (PK) parameters following intravenous infusion administration was conducted using Phoenix WinNonlin version 6.3 using a nominal infusion duration and scheduled blood sampling times. In Cohort 2 there were 3 subjects who received 1.25 mg/m^2 of topotecan once daily on Days 1 to 5. In Cohort 3 there were 4 subjects who received 0.75 mg/m^2 of topotecan once daily on Days 1 to 5.

[1] = Topotecan 0.75 mg/m^2 (Cohort 3) with Compound 1 200 mg/m^2, Day 1, Max
[2] = Topotecan 0.75 mg/m^2 (Cohort 3) with Compound 1 200 mg/m^2, Day 1, Min
[3] = Topotecan 0.75 mg/m^2 (Cohort 3) with Compound 1 200 mg/m^2, Day 1, individual subjects, monohydrochloride
[4] = Topotecan 0.75 mg/m^2 (Cohort 3) with Compound 1 200 mg/m^2, Day 4, Max
[5] = Topotecan 0.75 mg/m^2 (Cohort 3) with Compound 1 200 mg/m^2, Day 4, Min
[6] = Topotecan 0.75 mg/m^2 (Cohort 3) with Compound 1 200 mg/m^2, Day 4, individual subjects, monohydrochloride
[7] = Topotecan 1.25 mg/m^2 (Cohort 2) with Compound 1 200 mg/m^2, Day 1, Max
[8] = Topotecan 1.25 mg/m^2 (Cohort 2) with Compound 1 200 mg/m^2, Day 1, Min
[9] = Topotecan 1.25 mg/m^2 (Cohort 2) with Compound 1 200 mg/m^2, Day 1, individual subjects, monohydrochloride
[10] = Topotecan 1.25 mg/m^2 (Cohort 2) with Compound 1 200 mg/m^2, Day 4, Max
[11] = Topotecan 1.25 mg/m^2 (Cohort 2) with Compound 1 200 mg/m^2, Day 4, Min
[12] = Topotecan 1.25 mg/m^2 (Cohort 2) with Compound 1 200 mg/m^2, Day 4, individual subjects, monohydrochloride
[13] = Topotecan […]^2 (Cohort 1) with Compound 1 200 mg/m^2, Day 1, Max
[14] = Topotecan […]^2 (Cohort 1) with Compound 1 200 mg/m^2, Day 1, Min
[15] = Topotecan […]^2 (Cohort 1) with Compound 1 200 mg/m^2, Day 1, individual subjects, monohydrochloride
[16] = Topotecan […]^2 (Cohort 1) with Compound 1 200 mg/m^2, Day 4, Max
[17] = Topotecan […]^2 (Cohort 1) with Compound 1 200 mg/m^2, Day 4, Min

`CC[C@@]1(O)C(=O)OCc2c1cc1n(c2=O)Cc2cc3c(CN(C)C)c(O)ccc3nc2-1.Cl` [topotecan, (S)-10-[(dimethylamino)methyl]-4-ethyl-4,9-dihydroxy-1H-pyrano[3′,4′:6,7]indolizino[1,2-b]quinoline-3,14(4H,12H)-dione monohydrochloride] showed an AUC24.5 [1] of 118 ng·h/mL, an AUCx5 [1] of 78600 nM·min and a Cmax [1] of 38.5 ng/mL. The t½ [1] was 4.70 h, the AUCinf (Topotecan 0.75 mg/m^2 (Cohort 3) with Compound 1 200 mg/m^2, Day 1, Max, monohydrochloride) was 120 h*ng/mL and 15700 min*nM and the AUC24.5 [2] was 75.0 ng·h/mL. The AUCx5 [2] was 49700 nM·min, the Cmax [2] was 17.9 ng/mL and the t½ [2] was 4.04 h. The AUCinf (Topotecan 0.75 mg/m^2 (Cohort 3) with Compound 1 200 mg/m^2, Day 1, Min, monohydrochloride) was 75.9 h*ng/mL and 9950 min*nM, the AUC24.5 [3] was 75.0 ng·h/mL and 118 ng·h/mL and 94.7 ng·h/mL and the AUCinf [3] was 75.9 h*ng/mL and 9950 min*nM and 120 h*ng/mL and 15700 min*nM and 96.8 h*ng/mL and 12700 min*nM. The AUCx5 [3] was 49700 nM·min and 78600 nM·min and 63400 nM·min, the Cmax [3] was 20.8 ng/mL and 17.9 ng/mL and 38.5 ng/mL and 32.0 ng/mL and the t½ [3] was 4.04 h and 4.27 h and 4.70 h. The Cmax [4] was 30.7 ng/mL, the t½ [4] was 5.07 h and the AUCτ (Topotecan 0.75 mg/m^2 (Cohort 3) with Compound 1 200 mg/m^2, Day 4, Max, monohydrochloride) was 112 h*ng/mL and 14700 min*nM. The Cmax [5] was 18.4 ng/mL, the t½ [5] was 4.63 h and the AUCτ (Topotecan 0.75 mg/m^2 (Cohort 3) with Compound 1 200 mg/m^2, Day 4, Min, monohydrochloride) was 74.4 h*ng/mL and 9740 min*nM. The AUCτ [6] was 74.4 h*ng/mL and 9740 min*nM and 99.7 h*ng/mL and 13100 min*nM and 112 h*ng/mL and 14700 min*nM, the Cmax [6] was 18.4 ng/mL and 30.7 ng/mL and 22.6 ng/mL and the t½ [6] was 5.07 h and 4.68 h and 4.73 h. It also gave an AUC24.5 [7] of 247 ng·h/mL, an AUCx5 [7] of 166000 nM·min and a Cmax [7] of 94.1 ng/mL. For the same compound, the t½ [7] was 5.09 h, the AUCinf (Topotecan 1.25 mg/m^2 (Cohort 2) with Compound 1 200 mg/m^2, Day 1, Max, monohydrochloride) was 254 h*ng/mL and 33300 min*nM and the AUC24.5 [8] was 120 ng·h/mL. For the same compound, the AUCx5 [8] was 80400 nM·min, the Cmax [8] was 39.3 ng/mL and the t½ [8] was 4.78 h. The AUCinf (Topotecan 1.25 mg/m^2 (Cohort 2) with Compound 1 200 mg/m^2, Day 1, Min, monohydrochloride) was 123 h*ng/mL and 16100 min*nM, the AUC24.5 [9] was 247 ng·h/mL and 120 ng·h/mL and the AUCx5 [9] was 106000 nM·min and 166000 nM·min and 80400 nM·min. The Cmax [9] was 94.1 ng/mL and 39.3 ng/mL, the t½ [9] was 5.09 h and 4.92 h and the Cmax [10] was 104 ng/mL. For the same compound, the t½ [10] was 5.97 h, the AUCτ (Topotecan 1.25 mg/m^2 (Cohort 2) with Compound 1 200 mg/m^2, Day 4, Max, monohydrochloride) was 231 h*ng/mL and 30300 min*nM and the Cmax [11] was 33.1 ng/mL. For the same compound, the t½ [11] was 4.98 h, the AUCτ (Topotecan 1.25 mg/m^2 (Cohort 2) with Compound 1 200 mg/m^2, Day 4, Min, monohydrochloride) was 124 h*ng/mL and 16300 min*nM and the AUCτ [12] was 231 h*ng/mL and 30300 min*nM and 124 h*ng/mL and 16300 min*nM. The Cmax [12] was 104 ng/mL and 33.1 ng/mL, the t½ [12] was 5.97 h and 4.98 h and the AUC24.5 [13] was 169 ng·h/mL. It also gave an AUCx5 [13] of 112000 nM·min, a Cmax [13] of 98.8 ng/mL and a t½ [13] of 4.56 h. For the same compound, the AUCx5 [14] was 86600 nM·min, the Cmax [14] was 40.2 ng/mL and the t½ [14] was 4.11 h. It also gave an AUCinf (Topotecan […]^2 (Cohort 1) with Compound 1 200 mg/m^2, Day 1, Min, monohydrochloride) of 17300 nM·min, an AUC24.5 [15] of 169 ng·h/mL and an AUCx5 [15] of 112000 nM·min. It also gave a t½ [15] of 4.11 h, a Cmax [16] of 122 ng/mL and a t½ [16] of 5.11 h. The Cmax [17] was 56.5 ng/mL, the t½ [17] was 4.64 h and the AUCτ (Topotecan […]^2 (Cohort 1) with Compound 1 200 mg/m^2, Day 4, Min, monohydrochloride) was 18800 nM·min. For the same compound, the t½ (Topotecan […]^2 (Cohort 1) with Compound 1 200 mg/m^2, Day 4, individual subjects, monohydrochloride) was 4.64 h, the AUC (human, plasma, intravenous, Topotecan 0.75 mg/m^2 (Cohort 3) with Compound 1 200 mg/m^2, Day 1, Mean, read-out: AUC24.5) was 92.8 ng·h/mL and the AUC(0-inf) (human, plasma, intravenous, Topotecan 0.75 mg/m^2 (Cohort 3) with Compound 1 200 mg/m^2, Day 1, Mean, read-out: AUCinf (converted)) was 94.4 ng·h/mL and 0.207 µM·h. For the same compound, the AUC (human, plasma, intravenous, Topotecan 0.75 mg/m^2 (Cohort 3) with Compound 1 200 mg/m^2, Day 1, Mean, read-out: AUCx5 (converted)) was 1.03 µM·h.
